Reference: patent US20210386367A1, “DEVICES AND SYSTEMS FOR GASTROINTESTINAL MICROBIOME DETECTION AND MANIPULATION” (Progenity, Inc., priority 2018, published 2021)
In brackets after ≈: the same amount, converted by molar mass. Like-named read-outs stand apart in the source and are kept apart here.

Experiments:
Assay type in all cases: cell-based
[1] = test system: Streptococcus pyogenes clinical isolates; experiment: MIC distribution against clinical isolates
Text: (§1) As used herein, “minimum inhibitory concentration” or “MIC” refers to the lowest concentration of an antimicrobial agent, for example, an antimicrobial agent as described herein, required to inhibit the growth of an organism. […] “MIC90” represents the MIC value at which ≥90% of the strains within a test population are inhibited; the 90th percentile.
(§2) Many susceptibility testing methods are known in the art and can be used as described herein (see, e.g., Jorgensen and Ferraro (2009) Clinical Infectious Diseases 49:1749-1755; and Maurer et al. (2017) Infectious Disease Reports 9:6839; the entire contents of each of the foregoing are incorporated herein by reference). For example, antimicrobial susceptibility can be determined using conventional culture based methods such as the broth or agar dilution test. In these dilution tests, the bacterial isolate of interest is inoculated onto different media that include serial dilutions of an antimicrobial agent, and incubated under appropriate conditions (e.g., overnight at 37° C.) to allow for growth to occur. Following the incubation period, the media is examined to determine bacterial growth. The lowest concentration of antibiotic that prevents growth represents the minimal inhibitory concentration (MIC). Broth dilution tests can be miniaturized and mechanized allowing for reproducibility and high throughput.

[2] = test system: Viridans group Streptococci clinical isolates; experiment: MIC distribution against clinical isolates; details: 15 Viridans group Streptococci isolates
Text: as §1, §2

[3] = test system: Streptococcus spp. clinical isolates; experiment: MIC distribution against clinical isolates; details: 54 Streptococcus spp. isolates
Text: (n=19 S. pyogenes, n=20 S. agalactiae and n=20 Viridans group Streptococcus) clinical isolates (μg/mL).
as §1, §2

[4] = test system: Viridans group Streptococcus; experiment: Broth microdilution MIC, 15 clinical isolates; details: for Mode: modal MIC
Protocol: (§3) Minimal inhibitory concentration (MIC) values were determined by broth microdilution or agar dilution in accordance with guidelines from the Clinical and Laboratory Standards Institute (CLSI; (1) “Methods for Dilution Antimicrobial Susceptibility Tests for Bacteria That Grow Aerobically; Approved Standard; 11th ed.” CLSI standard M07-A11, 2018; (2) “Performance Standards for Antimicrobial Susceptibility Testing; Twenty-Eighth Informational Supplement,” CLSI document M100-S28, 2018; and (3) “Methods for Antimicrobial Susceptibility Testing of Anaerobic Bacteria; Approved Standard—Eighth Edition,” CLSI document M11-A8, 2012).
(§4) Tested aerobically by broth microdilution: • Escherichia coli, n=50 • Klebsiella spp., n=50 • Pseudomonas aeruginosa, n=50 • Streptococcus spp., n=50 • Staphylococcus aureus, n=50 • Enterococcus faecalis, n=50 • Enterobacter aerogenes, n=50 • Proteus mirabilis, n=50
(§5) Broth microdilution testing of aerobic bacteria was conducted in cation-adjusted Mueller Hinton broth (MHBII). For testing streptococci, lysed horse blood (LHB) was added to MHBII broth at a final concentration of 3%. Where LHB was used, it was added after filtering.
(§6) Broth microdilution susceptibility testing in 96-well microplates was conducted in accordance with CLSI methods (1) and (2). Automated liquid handlers were used to conduct serial dilutions and liquid transfers, including the Multidrop 384 (Labsystems, Helsinki, Finland), Biomek 2000, and the Biomek FX (Beckman Coulter, Fullerton, Calif.). All wells in columns 2 through 12 of a standard 96-well microdilution plate (Costar 3795) were filled with 150 μL of the appropriate diluent. Then, 300 μL of the test agents were added to the wells of column 1 of the plates at 100× the highest final concentration to be tested. Serial two-fold dilutions were made across the rows through column 11 using the Biomek 2000. The wells of column 12 contained no drug and served as the growth control wells. This plate served as the “mother plate” from which MIC assay plates or “daughter plates” were made.
(§7) The daughter plates were loaded with 190 μL per well of the appropriate medium using the Multidrop 384. The daughter plates were created using the Biomek FX which transferred 2 μL of drug solution from each well of a mother plate to each corresponding well of the daughter plate in a single step. A standardized inoculum of each test organism was prepared per CLSI methods (1) to equal a 0.5 McFarland standard, followed by a dilution of 1:20 for aerobes and 1:10 for anaerobes. The plates were then inoculated with 10 μL of the diluted inoculum using the Biomek 2000 from low to high drug concentration, resulting in a final concentration of approximately 5×10^5 CFU/mL per well. An un-inoculated plate was incubated in parallel for each medium for the purpose of assessing solubility of the drug in the test media.
(§8) Inoculated plates were stacked 3 or 4 high, covered with a sterile lid on the top plate, placed into boxes with CO2 planchets (streptococci) or plastic bags (all other isolates). Plates were incubated at 35° C. for 16-24 hr in ambient air for aerobes or for 42-48 hr in the anaerobic environment of the Bactron II anaerobe chamber (Sheldon Manufacturing Co.; Cornelius, Oreg.). Following incubation, the microplates were removed from the incubator and viewed from the bottom using a plate viewer. The MIC values were read and recorded as the lowest concentration of drug that inhibited visible growth of the organism as per CLSI methods (1) and (2).

Streptococcus pyogenes = experiment: Broth microdilution MIC, 19 clinical isolates
Protocol: as §3, §4, §5, §6, §7, §8

Streptococcus agalactiae = experiment: Broth microdilution MIC, 20 clinical isolates; details: for Mode: modal MIC
Protocol: as §3, §4, §5, §6, §7, §8

Enterococcus faecalis = experiment: Broth microdilution MIC, 50 clinical isolates
Protocol: as §3, §4, §5, §6, §7, §8

Staphylococcus aureus = experiment: Broth microdilution MIC, 50 clinical isolates (28 MRSA)
Protocol: as §3, §4, §5, §6, §7, §8

[5] = MIC 0.008 μg/mL, 19 S. pyogenes isolates
[6] = MIC ≤0.004 μg/mL, 19 S. pyogenes isolates
[7] = 15 Viridans group Streptococci clinical isolates
[8] = 15 Viridans group Streptococci clinical isolates, MXF by FDA breakpoints
[9] = 20 Streptococcus agalactiae clinical isolates

Penicillin
Cumulative percentage of isolates inhibited at MIC [1]: 100.0%
Number of test isolates at MIC [1]: 1
Cumulative percentage of isolates inhibited at MIC [1, 5]: 94.7%
Number of test isolates at MIC [1, 5]: 8
Cumulative percentage of isolates inhibited at MIC [1, 6]: 52.6%
Number of test isolates at MIC [1, 6]: 10
Cumulative percentage of isolates inhibited at MIC ([2]; MIC 0.008 μg/mL): 6.7%
Number of test isolates at MIC ([2]; MIC 0.008 μg/mL): 1
Cumulative percentage of isolates inhibited at MIC ([2]; MIC 1 μg/mL): 100.0%
Cumulative percentage of isolates inhibited at MIC ([3]; MIC 0.008 μg/mL): 35.2%
Number of test isolates at MIC ([3]; MIC 0.008 μg/mL): 9
Cumulative percentage of isolates inhibited at MIC ([3]; MIC 1 μg/mL): 100.0%
Cumulative percentage of isolates inhibited at MIC ([3]; MIC ≤0.004 μg/mL): 18.5%
Number of test isolates at MIC ([3]; MIC ≤0.004 μg/mL): 10
MIC50 [4, 7]: 0.03 µg/mL
MIC90 [4, 7]: 1 µg/mL
MIC range [4, 7]: 0.008 to 1 µg/mL
% I [4, 8]: 40% ^
% S [4, 8]: 60%
Mode [4, 7]: 0.015 µg/mL
% S (Streptococcus pyogenes): 100%
MIC50 (Streptococcus pyogenes): <0.004 µg/mL
MIC90 (Streptococcus pyogenes): 0.008 µg/mL
MIC range (Streptococcus pyogenes): ≤0.004-0.03^ μg/mL
Mode (Streptococcus pyogenes): <0.004 µg/mL
MIC50 (Streptococcus agalactiae; [9]): 0.03 µg/mL
MIC90 (Streptococcus agalactiae; [9]): 0.03 µg/mL
MIC range (Streptococcus agalactiae; [9]): 0.015 to 0.06 µg/mL
% S (Streptococcus agalactiae; 20 Streptococcus agalactiae clinical isolates, MXF by FDA breakpoints): 100%
Mode (Streptococcus agalactiae; [9]): 0.03 µg/mL

CO[C@H]1/C=C/O[C@@]2(C)Oc3c(C)c(O)c4c(O)c(c5c(nc6cc(C)ccn65)c4c3C2=O)NC(=O)/C(C)=C\C=C\[C@H](C)[C@H](O)[C@@H](C)[C@@H](O)[C@@H](C)[C@H](OC(C)=O)[C@@H]1C [rifaximin]
Number of test isolates at MIC ([1]; MIC 0.06 μg/mL, 19 S. pyogenes isolates): 6
Number of test isolates at MIC ([2]; MIC 0.06 μg/mL): 6
MIC50 [4]: 0.06 µg/mL (≈ 0.0763 µM)
MIC90 [4]: 0.12 µg/mL (≈ 0.153 µM)
MIC50 [4, 7]: 0.06 µg/mL (≈ 0.0763 µM)
MIC90 [4, 7]: 0.12 µg/mL (≈ 0.153 µM)
MIC range [4, 7]: 0.015 to 0.1 µg/mL
Mode [4, 7]: 0.06 µg/mL
MIC50 (Streptococcus pyogenes): 0.06 µg/mL (≈ 0.0763 µM)
MIC90 (Streptococcus pyogenes): 0.25 µg/mL (≈ 0.318 µM)
MIC range (Streptococcus pyogenes): 0.015 to 0.25 µg/mL
Mode (Streptococcus pyogenes): 0.06 µg/mL
MIC50 (Streptococcus agalactiae): 0.12 µg/mL (≈ 0.153 µM)
MIC90 (Streptococcus agalactiae): 0.12 µg/mL (≈ 0.153 µM)
MIC50 (Streptococcus agalactiae; [9]): 0.12 µg/mL (≈ 0.153 µM)
MIC90 (Streptococcus agalactiae; [9]): 0.12 µg/mL (≈ 0.153 µM)
MIC range (Streptococcus agalactiae; [9]): 0.12 to 0.25 µg/mL
Mode (Streptococcus agalactiae; [9]): 0.12 µg/mL
MIC50 (Enterococcus faecalis): 2 µg/mL (≈ 2.54 µM)
MIC90 (Enterococcus faecalis): 4 µg/mL (≈ 5.09 µM)
Mode (Enterococcus faecalis): 1 µg/mL
relative activity among drugs tested (Enterococcus faecalis): slightly more active than meropenem
MIC50 (Staphylococcus aureus): 0.015 µg/mL (≈ 0.0191 µM)
MIC90 (Staphylococcus aureus): 0.06 µg/mL (≈ 0.0763 µM)
MIC range (Staphylococcus aureus): 0.008 to 32 µg/mL
Mode (Staphylococcus aureus): 0.015 µg/mL
relative activity among drugs tested (Staphylococcus aureus): most active drug tested
